Bridge positions count the residues as written; N and C are the ends. Square brackets hold non-standard residues; d marks the D form. Peptide text beside a SMILES is read from it. R8 = C=CCCCCCC[C@@](C)(N)C(=O)O; S5 = C=CCCC[C@](C)(N)C(=O)O; Nle = CCCC[C@H](N)C(=O)O; Abu = CC[C@H](N)C(=O)O
Key:
[1] = molecular target: T1, flag-tagged HIF1α (AA 786-826) / His6-tagged p300 (AA 323-423) complex (Homo sapiens, UniProt Q09472); assay: HIF1α p300 displacement assay (TR FRET, +CHAPS); format: binding; settings: read-out: IC50 (nM) (HIF1α_p300 Displacement + CHAPS)
T1 construct: His6-tagged p300 (AA 323-423); made in house; host or cells: E. coli (pETDuet vector)
T1 sequence (Q09472 323-423, one chain of several): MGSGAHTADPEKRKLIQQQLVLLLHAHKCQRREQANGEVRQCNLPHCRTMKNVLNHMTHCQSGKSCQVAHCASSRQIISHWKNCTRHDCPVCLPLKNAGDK
How it was run: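 In this TR-FRET displacement format, peptides compete HIF1α C-terminal transactivation domain off p300-CH. They were preincubated 1 h at room temperature with 300 nM complex in HEPES pH 7.4/NaCl buffer with 7.5 mM CHAPS and 1 mM DTT. Anti-His-D2 (4 nM) and anti-Flag-K (0.5 μM) followed for 2 h, and a one-site fit of the fluorescence ratio gave IC50.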

HRE-bla ME-180 cells [2] = assay: Reporter gene assay (HRE-bla ME-180 HIF reporter, GeneBLAzer); format: cell-based, human; settings: for EC50: 24 hour normoxia
How it was run: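 A FRET β-lactamase readout of HIF transcription was used. After compound treatment in 0.3% DMSO/media under normoxic conditions, 20 μl of 6× LiveBLAzer-FRET B/G (CCF4-AM) substrate was added. Plates sat 3 hr at room temperature in the dark and were read at 409 Ex/460Em and 409Ex/530Em on a Synergy 2. Inhibition was compared against DMSO vehicle controls, with chetomin as positive control.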

HRE-bla ME-180 cells [3] = assay: Cell proliferation assay (viability, MTT, 1% FBS); format: cell-based, human
How it was run: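 Viable cell number was measured with the CellTiter 96 (MTT) kit after compounds were applied for a 16 h normoxic (21% O2) pretreatment, followed by further normoxic or hypoxic (1% O2) culture. Cells: 2×10^4 ME-180 per well, Opti-MEM + 1% FBS, 0.5% DMSO vehicle.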

| Structure (SMILES) | IC50 [1] [nM] | 18 h Avg % max inhibition at top conc (HIF Rptr-24 hrs normoxia) (μM) (HRE-bla ME-180 cells [2]) | EC50 (HRE-bla ME-180 cells [2]) [µM] | Viability 1% FBS AVG (MTT V3-24 hr Normoxia) (μM) (HRE-bla ME-180 cells [3]) |
| --- | --- | --- | --- | --- |
| CC[C@H](C)[C@H](NC(=O)[C@H](CCCNC(=N)N)NC(=O)[C@H](CC(=O)O)NC(=O)[C@H](CC(C)C)NC(=O)[C@H](C)NC(=O)[C@H](CCSC)NC(=O)[C@]1(C)CCCC=CCCC[C@](C)(NC(=O)[C@H](CCSC)NC(=O)[C@H](CC(C)C)NC(=O)[C@@H](NC(=O)[C@H](Cc2c[nH]cn2)NC(=O)[C@H](CCC(=O)O)NC(=O)[C@H](CC(=O)O)NC(=O)[C@@H](NC(=O)[C@H](Cc2ccccc2)NC(C)=O)[C@@H](C)CC)C(C)C)C(=O)N[C@@H](CC(C)C)C(=O)N[C@@H](C(C)C)C(=O)N[C@@H]([C@@H](C)CC)C(=O)N1)C(N)=O [SP-284] (Ac-FIDEHVLM[S5]LVI[S5]MALDRI-NH2; staple 9-13) | 400 to 700 | +++ (≤25 but <50: +++) | 5 to 15 | ++++ (≥30: ++++) |
| CC[C@H](C)[C@H](NC(=O)[C@H](CC(N)=O)NC(=O)[C@@H](NC(=O)[C@H](CCC(N)=O)NC(=O)[C@H](CC(=O)O)NC(=O)[C@H](CC(C)C)NC(=O)[C@H](C)NC(=O)[C@H](CCCNC(=N)N)NC(=O)[C@H](CC(C)C)NC(=O)[C@H](CC(C)C)NC(=O)[C@H](CCC(=O)O)NC(=O)[C@H](CCC(=O)O)NC(=O)CNC(=O)[C@H](CCC(N)=O)NC(=O)[C@H](CC(C)C)NC(=O)[C@H](CC(C)C)NC(C)=O)C(C)C)C(=O)N[C@@H](CC(=O)O)C(=O)N[C@@H](CCC(=O)O)C(=O)N[C@@]1(C)CCCC=CCCC[C@@](C)(C(=O)N[C@@H](CC(C)C)C(=O)N[C@H](C(=O)N[C@H](C(=O)N[C@@H](CCC(=O)O)C(=O)N[C@@H](CCSC)C(N)=O)[C@@H](C)CC)C(C)C)NC(=O)[C@H](CCSC)NC(=O)[C@H](CC(C)C)NC(=O)[C@H](C(C)C)NC1=O [SP-318] (Ac-LLQGEELLRALDQVNIDE[S5]VLM[S5]LVIEM-NH2; staple 19-23) | 400 to 700 | + (<10: +) | > 30 | ++++ (≥30: ++++) |
| CC[C@@H]1NC(=O)[C@H](CC(=O)O)NC(=O)[C@H](Cc2ccc(O)cc2)NC(=O)[C@@](C)(NC(=O)[C@@H](NC(=O)[C@H](CC(C)C)NC(=O)[C@H](CCC(N)=O)NC(=O)[C@@H]2CCCN2C(=O)[C@H](CC(C)C)NC(=O)[C@H](CCC(=O)O)NC(=O)[C@H](CCCCN)NC(=O)[C@@H](NC(=O)[C@H](CCCNC(=N)N)NC(=O)[C@H](CC(=O)O)NC(=O)[C@H](CC(C)C)NC(=O)CNC(=O)[C@H](CCSC)NC(=O)[C@H](CCC(=O)O)NC(=O)[C@]2(C)CCCC=CCCCCCC[C@@](C)(NC(=O)[C@H](CCC(=O)O)NC(=O)[C@H](CC(=O)O)NC(=O)[C@@H](NC(=O)[C@H](Cc3ccccc3)NC(C)=O)[C@@H](C)CC)C(=O)N[C@@H](C(C)C)C(=O)N[C@@H](CC(C)C)C(=O)N[C@@H](CCSC)C(=O)N[C@@H](CO)C(=O)N[C@@H](CC(C)C)C(=O)N[C@@H](C(C)C)C(=O)N2)[C@@H](C)CC)[C@@H](C)O)CCCC=CCCC[C@@](C)(C(=O)N[C@H](C(=O)N[C@@H](CC(N)=O)C(=O)N[C@@H](C)C(N)=O)C(C)C)NC1=O [SP-323] (Ac-FIDE[R8]VLMSLV[S5]EMGLDRIKELPQLT[S5]YD[Abu][S5]VNA-NH2; staple 5-12, 27-31) | 200 to 400 | + (<10: +) | > 30 | ++++ (≥30: ++++) |
| CCCC[C@H](NC(=O)[C@H](CCC(=O)O)NC(=O)[C@]1(C)CCCC=CCCCCCC[C@@](C)(NC(=O)[C@H](CCC(=O)O)NC(=O)[C@H](C)NC(=O)[C@@H](NC(=O)[C@H](CC(N)=O)NC(=O)[C@@H](NC(=O)[C@H](CCC(N)=O)NC(=O)[C@]2(C)CCCC=CCCC[C@](C)(NC(=O)[C@H](CC(C)C)NC(=O)[C@H](CCC(=O)O)NC(=O)[C@H](CCC(=O)O)NC(=O)CNC(=O)[C@H](CCC(N)=O)NC(=O)[C@H](CC(C)C)NC(=O)[C@H](CC(C)C)NC(C)=O)C(=O)N[C@@H](CCCNC(=N)N)C(=O)N[C@@H](C)C(=O)N[C@@H](CC(C)C)C(=O)N2)C(C)C)[C@@H](C)CC)C(=O)N[C@@H](C(C)C)C(=O)N[C@@H](CC(C)C)C(=O)N[C@@H](CCCC)C(=O)N[C@@H](CO)C(=O)N[C@@H](CC(C)C)C(=O)N[C@@H](C(C)C)C(=O)N1)C(N)=O [SP-365] (Ac-LLQGEEL[S5]RAL[S5]QVNIAE[R8]VL[Nle]SLV[S5]E[Nle]-NH2; staple 8-12, 19-26) | > 700 | +++ (≤25 but <50: +++) | > 30 | ++++ (≥30: ++++) |
| CCCC[C@H](NC(=O)[C@]1(C)CCCC=CCCC[C@](C)(NC(=O)[C@H](CCCC)NC(=O)[C@H](CC(C)C)NC(=O)[C@@H](NC(=O)[C@H](C)NC(=O)[C@H](CCC(=O)O)NC(=O)[C@H](CC(=O)O)NC(=O)[C@@H](NC(=O)[C@H](CC(N)=O)NC(=O)[C@@H](NC(=O)[C@]2(C)CCCC=CCCCCCC[C@@](C)(NC(=O)[C@H](CCC(=O)O)NC(=O)CNC(=O)[C@H](CCC(N)=O)NC(=O)[C@H](CC(C)C)NC(=O)[C@H](CC(C)C)NC(C)=O)C(=O)N[C@@H](CC(C)C)C(=O)N[C@@H](CC(C)C)C(=O)N[C@@H](CCCNC(=N)N)C(=O)N[C@@H](C)C(=O)N[C@@H](CC(C)C)C(=O)N[C@@H](CC(=O)O)C(=O)N2)C(C)C)[C@@H](C)CC)C(C)C)C(=O)N[C@@H](CC(C)C)C(=O)N[C@@H](C(C)C)C(=O)N[C@@H]([C@@H](C)CC)C(=O)N1)C(N)=O [SP-347] (Ac-LLQGE[R8]LLRALD[S5]VNIDEAVL[Nle][S5]LVI[S5][Nle]-NH2; staple 6-13, 23-27) | 400 to 700 | +++ (≤25 but <50: +++) | > 30 | ++++ (≥30: ++++) |

Reference: US20190225650A1, “PEPTIDOMIMETIC MACROCYCLES AND USE THEREOF IN REGULATING HIF1ALPHA” (AILERON THERAPEUTICS, INC., priority 2013, published 2019)
